Data as given in patent publication US7846944B2, “Pyrazolo-pyridinone compounds and methods of use thereof” (Amgen Inc., priority 2007, dated 2010).

Assays:
[1] = target: recombinant human p38α (Homo sapiens, UniProt Q16539); test: Purified and activated recombinant human p38α HTRF kinase assay; format: biochemical; conditions: 1 nM p38α, 50 μM ATP, GST-ATF2 substrate, read-out: p38a IC50
Protocol: Purified and Activated Recombinant Human p38α Assay
• Kinase Reaction Buffer: Kinase reaction buffer for p38α HTRF assays consists of 50 mM Tris-pH 7.5, 5 mM MgCl2, 0.1 mg/mL BSA, 100 μM Na3VO4 and 0.5 mM DTT. • HTRF Detection Buffer: HTRF detection buffer contains 100 mM HEPES-pH 7.5, 100 mM NaCl, 0.1% BSA, 0.05% Tween-20, and 10 mM EDTA. • Serial Dilution of Compounds: Compounds were dissolved in 100% DMSO and serially diluted (3 fold, 10 point) in a polypropylene 96-well microtiter plate (drug plate). The final starting concentration of compounds in the p38α enzymatic assays was 1 μM. Columns 6 and 12 (HI controls and LO controls respectively) in the drug plate were reserved as controls and contained only DMSO. • Kinase Reaction The p38α kinase reactions were carried out in a polypropylene 96-well black round bottom assay plate in total volume of 30 μL kinase reaction buffer. Appropriate concentration of purified and activated enzyme (recombinant human) was mixed with indicated concentration of ATP and 100 nM GST-ATF2-Avitag, in the presence or absence (HI control) of Compound. See table below for actual concentrations. In the absence of substrate, the background was measured as LO control. The reaction was allowed to incubate for 1 hour at RT. • Assay Reagent Concentrations: The final reagent concentrations were 1 nM p38α and 50 μM ATP. […] After 60 minutes incubation at room temperature, the assay plate was read in a Discovery Plate Reader. The wells were excited with coherent 320 nm light and the ratio of delayed ([…] post excitation) emissions at […] (native europium fluorescence) and 665 nm (europium fluorescence transferred to allophycocyanin—an index of substrate phosphorylation) was determined (Park et al, 1999). • Data Analysis: The proportion of substrate phosphorylated in the kinase reaction in the presence of compound compared with that phosphorylated in the presence of DMSO vehicle alone (HI control) was calculated using the formula: % control (POC)=(compound−average LO)/(average HI−average LO)*100. Data (consisting of POC and inhibitor concentration in μM) was fitted to a 4-parameter equation (y=A+((B−A)/(1+((x/C)^D))), where A is the minimum y (POC) value, B is the maximum y (POC), C is the x (compound concentration) at the point of inflection and D is the slope factor, using a Levenburg-Marquardt non-linear regression algorithm.
The inhibition constant (Ki) of the inhibitor was estimated from the IC50 (compound concentration at the point of inflection C) using the Cheng-Prussof equation: Ki=IC50/(1+S/Km), where S is the ATP substrate concentration, and Km is the Michaelis constant for ATP as determined experimentally. All results were expressed as the mean±the standard error of the mean. Data acquisition and non-linear regression algorithms were performed using Activity Base v5.2 and XL-fit software v4.1 respectively. All data was archived using Activity Base v5.2 software.

[2] = test system: TNF-α secretion by LPS-treated THP1 cells; test: Lipopolysaccharide-activated THP1 cell TNF production assay; format: cell-based; conditions: Homo sapiens, THP-1; LPS, 3 hours, THP1 cells; read-out: IC50 in the THP-1 cellular TNF production assay
Protocol: Lipopolysaccharide-Activated THP1 Cell TNF Production Assay
THP1 cells were resuspended in fresh THP1 media (RPMI 1640, 10% heat-inactivated FBS, 1×PGS, 1×NEAA, plus 30 μM βME) at a concentration of 1.5×10^6 cells per mL. One hundred microliters of cells per well were plated in a polystyrene 96-well tissue culture plate. 1.5 micrograms per mL of bacterial LPS was prepared in THP1 media and transferred to the first 11 columns of a 96-well polypropylene plate. Column 12 contained only THP1 media for the LO control. Compounds were dissolved in 100% DMSO and serially diluted 3 fold in a polypropylene 96-well microtiter plate (drug plate). Columns 6 and 12 were reserved as controls (HI controls and LO controls respectively) and contained only DMSO. 10 μL of LPS followed by one microliter of inhibitor compound from the drug plate was transferred to the cell plate. The treated cells were induced to synthesize and secrete TNF-α in a 37° C. humidified incubator with 5% CO2 for 3 hours. Fifty microliters of conditioned media was transferred to a 96-well MULTI-ARRAY™ 96-well small spot plate—custom coated with MAB610 containing 100 μL of 2× Read Buffer P supplemented with 0.34 nM AF210NA polyclonal Ab labeled with ruthenium (MSD-Sulfo-TAG™-NHS ester). After an overnight incubation at room temperature with shaking, the reaction was read on the Sector Imager™ 6000. […] The amount of secreted TNF-α in the presence of AMG compounds compared with that in the presence of DMSO vehicle alone (HI control) was calculated using the formula: % control (POC)=(cpd−average LO)/(average HI−averageLO)*100. Data (consisting of POC and inhibitor concentration in μM) was fitted to a 4-parameter equation (y=A+((B−A)/(1+((x/C)^D))), where A is the minimum y (POC) value, B is the maximum y (POC), C is the x (cpd concentration) at the point of inflection and D is the slope factor) using a Levenburg-Marquardt non-linear regression algorithm.

recombinant human p38α, sequence (Q16539 whole entry): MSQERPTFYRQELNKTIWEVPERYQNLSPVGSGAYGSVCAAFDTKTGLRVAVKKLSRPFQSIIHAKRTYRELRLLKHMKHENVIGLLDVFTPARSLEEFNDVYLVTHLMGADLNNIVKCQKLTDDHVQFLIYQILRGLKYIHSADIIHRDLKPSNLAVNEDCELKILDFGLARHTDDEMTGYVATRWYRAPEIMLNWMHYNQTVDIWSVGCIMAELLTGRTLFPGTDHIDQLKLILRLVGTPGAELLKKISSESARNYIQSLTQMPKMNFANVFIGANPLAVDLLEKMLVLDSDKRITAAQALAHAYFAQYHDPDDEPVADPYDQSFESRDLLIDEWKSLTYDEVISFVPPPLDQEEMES

Row | Structure (SMILES) | IC50 [1] | IC50 [2]
1 | Cc1c(F)cc(C(N)=O)cc1-c1cc2cnn(-c3ccccc3Cl)c2n(C)c1=O [Example 1, 3-(1-(2-chlorophenyl)-7-methyl-6-oxo-6,7-dihydro-1H-pyrazolo[3,4-b]pyridin-5-yl)-5-fluoro-4-methylbenzamide] | 2.3 nM | ≤ 175 nM
2 | CCn1c(=O)c(-c2cc(C(=O)NC3CC3)cc(F)c2C)cc2cnn(-c3ccccc3F)c21 [Example 6, N-cyclopropyl-3-(7-ethyl-1-(2-fluorophenyl)-6-oxo-6,7-dihydro-1H-pyrazolo[3,4-b]pyridin-5-yl)-5-fluoro-4-methylbenzamide] | 2.5 nM | ≤ 175 nM
3 | Cc1c(F)cc(C(=O)NC2CC2)cc1-c1cc2cnn(-c3ccccc3F)c2n(C)c1=O [Example 9, N-cyclopropyl-3-fluoro-5-(1-(2-fluorophenyl)-7-methyl-6-oxo-6,7-dihydro-1H-pyrazolo[3,4-b]pyridin-5-yl)-4-methylbenzamide] | 2.2 nM | ≤ 175 nM
4 | Cc1ccc(C(=O)Nc2ccnn2C)cc1-c1cc2cnn(-c3c(F)cccc3F)c2n(C)c1=O [Example 10, 3-(1-(2,6-difluorophenyl)-7-methyl-6-oxo-6,7-dihydro-1H-pyrazolo[3,4-b]pyridin-5-yl)-4-methyl-N-(1-methyl-1H-pyrazol-5-yl)benzamide] | 2.9 nM | ≤ 175 nM
5 | Cc1c(F)cc(C(=O)NC2CC2)cc1-c1cc2cnn(-c3ccc(F)cc3F)c2n(C)c1=O [Example 11, N-cyclopropyl-3-(1-(2,4-difluorophenyl)-7-methyl-6-oxo-6,7-dihydro-1H-pyrazolo[3,4-b]pyridin-5-yl)-5-fluoro-4-methylbenzamide] | 2.6 nM | ≤ 175 nM
6 | Cc1ccc(C(=O)NC2CC2)cc1-c1cc2cnn(-c3ccccc3C)c2n(C)c1=O [Example 14, N-cyclopropyl-4-methyl-3-(7-methyl-1-(2-methylphenyl)-6-oxo-6,7-dihydro-1H-pyrazolo[3,4-b]pyridin-5-yl)benzamide] | 4.2 nM | ≤ 175 nM
7 | Cc1ccccc1-n1ncc2cc(-c3cc(C(=O)NC4CC4)cc(F)c3C)c(=O)n(C)c21 [Example 15, N-cyclopropyl-3-fluoro-4-methyl-5-(7-methyl-1-(2-methylphenyl)-6-oxo-6,7-dihydro-1H-pyrazolo[3,4-b]pyridin-5-yl)benzamide] | 5.2 nM | ≤ 175 nM
8 | Cc1c(F)cc(C(=O)NC2CC2)cc1-c1cc2cnn(C(C)C)c2n(C)c1=O [Example 17, N-cyclopropyl-3-fluoro-4-methyl-5-(7-methyl-1-(1-methylethyl)-6-oxo-6,7-dihydro-1H-pyrazolo[3,4-b]pyridin-5-yl)benzamide] |  | ≤ 175 nM
9 | Cc1ccc(C(=O)Nc2ccon2)cc1-c1cc2cnn(-c3c(F)cccc3F)c2n(C)c1=O [Example 18, 3-(1-(2,6-difluorophenyl)-7-methyl-6-oxo-6,7-dihydro-1H-pyrazolo[3,4-b]pyridin-5-yl)-N-3-isoxazolyl-4-methylbenzamide] | 3 nM | ≤ 175 nM
10 | Cc1cnc(C(=O)NC2CC2)cc1-c1cc2cnn(-c3c(F)cccc3F)c2n(C)c1=O [Example 19, N-cyclopropyl-4-(1-(2,6-difluorophenyl)-7-methyl-6-oxo-6,7-dihydro-1H-pyrazolo[3,4-b]pyridin-5-yl)-5-methyl-2-pyridinecarboxamide] | 18 nM | ≤ 175 nM
11 | Cc1c(F)cc(C(=O)NC(C)C)cc1-c1cc2cnn(-c3c(F)cccc3F)c2n(C)c1=O [Example 21, 3-(1-(2,6-difluorophenyl)-7-methyl-6-oxo-6,7-dihydro-1H-pyrazolo[3,4-b]pyridin-5-yl)-5-fluoro-4-methyl-N-(1-methylethyl)benzamide] | 7 nM | ≤ 175 nM
12 | CNC(=O)c1cc(F)c(C)c(-c2cc3cnn(-c4c(F)cccc4F)c3n(C)c2=O)c1 [Example 22, 3-(1-(2,6-difluorophenyl)-7-methyl-6-oxo-6,7-dihydro-1H-pyrazolo[3,4-b]pyridin-5-yl)-5-fluoro-N,4-dimethylbenzamide] | 6.2 nM | ≤ 175 nM
13 | Cc1c(F)cc(C(=O)NC2CC2)cc1-c1cc2cnn(-c3cc(F)ccc3F)c2n(C)c1=O [Example 23, N-cyclopropyl-3-(1-(2,5-difluorophenyl)-7-methyl-6-oxo-6,7-dihydro-1H-pyrazolo[3,4-b]pyridin-5-yl)-5-fluoro-4-methylbenzamide] | 3.9 nM | ≤ 175 nM
14 | Cc1ccc(C(=O)NC2CC2)cc1-c1cc2cnn(-c3cc(F)ccc3F)c2n(C)c1=O [Example 24, N-cyclopropyl-3-(1-(2,5-difluorophenyl)-7-methyl-6-oxo-6,7-dihydro-1H-pyrazolo[3,4-b]pyridin-5-yl)-4-methylbenzamide] | 6.2 nM | ≤ 175 nM
15 | Cc1ccc(C(=O)NC2(C)CC2)cc1-c1cc2cnn(-c3cc(F)ccc3F)c2n(C)c1=O [Example 25, 3-(1-(2,5-difluorophenyl)-7-methyl-6-oxo-6,7-dihydro-1H-pyrazolo[3,4-b]pyridin-5-yl)-4-methyl-N-(1-methylcyclopropyl)benzamide] | 1.1 nM | ≤ 175 nM
16 | Cc1ccc(C(=O)Nc2ccon2)cc1-c1cc2cnn(-c3cc(F)ccc3F)c2n(C)c1=O [Example 26, 3-(1-(2,5-difluorophenyl)-7-methyl-6-oxo-6,7-dihydro-1H-pyrazolo[3,4-b]pyridin-5-yl)-N-3-isoxazolyl-4-methylbenzamide] | 2.3 nM | ≤ 175 nM
17 | Cc1ccc(C(=O)Nc2nccs2)cc1-c1cc2cnn(-c3c(F)cccc3F)c2n(C)c1=O [Example 28, 3-(1-(2,6-difluorophenyl)-7-methyl-6-oxo-6,7-dihydro-1H-pyrazolo[3,4-b]pyridin-5-yl)-4-methyl-N-1,3-thiazol-2-ylbenzamide] | 1.1 nM | ≤ 175 nM
18 | Cn1c(=O)c(-c2cc(C(=O)NC3CC3)ccc2Cl)cc2cnn(-c3cc(F)ccc3F)c21 [Example 29, 4-chloro-N-cyclopropyl-3-(1-(2,5-difluorophenyl)-7-methyl-6-oxo-6,7-dihydro-1H-pyrazolo[3,4-b]pyridin-5-yl)benzamide] |  | ≤ 175 nM
19 | Cc1ccc(C(=O)NC2(C)CC2)cc1-c1cc2cnn(-c3c(F)cccc3F)c2n(C)c1=O [Example 30, 3-(1-(2,6-difluorophenyl)-7-methyl-6-oxo-6,7-dihydro-1H-pyrazolo[3,4-b]pyridin-5-yl)-4-methyl-N-(1-methylcyclopropyl)benzamide] |  | ≤ 175 nM
